Test results taken from ChEMBL document CHEMBL4765365, “Design, synthesis and antitumour evaluation of pyrrolo[1,2-f]-phenanthridine and dibenzo[f,h]pyrrolo[1,2-b]isoquinoline derivatives” (Eur J Med Chem, 2020).
Active and inactive are the calls of the source. No cut-off for these calls is given here.

Key:
NCI-H460 [1] = test: Induction of cell cycle arrest in human NCI-H460 cells assessed as G1 phase at 0.75 uM measured at 0 hrs by PI staining based flow cytometry analysis (reference value: 53.4 +/- 4.8 %); assay type: functional
HCT-116 [2] = test: Induction of cell cycle arrest in human HCT-116 cells assessed as S phase at 1.5 uM measured at 0 hrs by PI staining based flow cytometry analysis (reference value: 12.4 +/- 6.2 %); assay type: functional
NCI-H460 [3] = test: Induction of cell cycle arrest in human NCI-H460 cells assessed as G2/M phase at 3 uM incubated for 12 hrs by PI staining based flow cytometry analysis (reference value: 22.9 +/- 6.8 %); assay type: functional
NCI-H460 [4] = test: Induction of cell cycle arrest in human NCI-H460 cells assessed as S phase at 1.5 uM incubated for 36 hrs by PI staining based flow cytometry analysis (reference value: 7.6 +/- 3.9 %); assay type: functional
NCI-H460 [5] = test: Induction of cell cycle arrest in human NCI-H460 cells assessed as S phase at 3 uM measured at 0 hrs by PI staining based flow cytometry analysis (reference value: 12.2 +/- 2.8 %); assay type: functional
NCI-H460 [6] = test: Induction of cell cycle arrest in human NCI-H460 cells assessed as G2/M phase at 3 uM measured at 0 hrs by PI staining based flow cytometry analysis (reference value: 25.2 +/- 4 %); assay type: functional
NCI-H460 [7] = test: Cytotoxicity against human NCI-H460 cells assessed as reduction in cell viability incubated for 72 hrs by XTT assay; assay type: functional, cell-based; conditions: NCI-H460, 72 h
NCI-H460 [8] = test: Induction of cell cycle arrest in human NCI-H460 cells assessed as G2/M phase at 0.75 uM measured at 0 hrs by PI staining based flow cytometry analysis (reference value: 25.2 +/- 4 %); assay type: functional
HCT-116 [9] = test: Induction of cell cycle arrest in human HCT-116 cells assessed as G1 phase at 0.375 uM measured at 0 hrs by PI staining based flow cytometry analysis (reference value: 52 +/- 5.1 %); assay type: functional
CCRF-CEM = test: Cytotoxicity against human CCRF-CEM cells assessed as reduction in cell viability incubated for 72 hrs by XTT assay; assay type: functional, cell-based
NCI-H460 [10] = test: Induction of cell cycle arrest in human NCI-H460 cells assessed as G2/M phase at 0.75 uM incubated for 24 hrs by PI staining based flow cytometry analysis (reference value: 21 +/- 6.7 %); assay type: functional
NCI-H460 [11] = test: Induction of apoptosis in human NCI-H460 cells assessed as late apoptotic cells at 1.5 uM incubated for 48 hrs by annexin V-FITC and PI staining based flow cytometry analysis (reference value: 7.3 %); assay type: functional
HCT-116 [12] = test: Induction of cell cycle arrest in human HCT-116 cells assessed as S phase at 0.375 uM incubated for 24 hrs by PI staining based flow cytometry analysis (reference value: 21.2 +/- 5.4 %); assay type: functional
NCI-H460 [13] = test: Induction of cell cycle arrest in human NCI-H460 cells assessed as G1 phase at 3 uM incubated for 24 hrs by PI staining based flow cytometry analysis (reference value: 56.8 +/- 7.6 %); assay type: functional
CEM-VLB = test: Cytotoxicity against human CEM-VLB cells assessed as reduction in cell viability incubated for 72 hrs by XTT assay; assay type: functional, cell-based
HCT-116 [14] = test: Induction of cell cycle arrest in human HCT-116 cells assessed as G2/M phase at 1.5 uM measured at 0 hrs by PI staining based flow cytometry analysis (reference value: 28.9 +/- 1.4 %); assay type: functional
NCI-H460 [15] = test: Induction of apoptosis in human NCI-H460 cells assessed as viable cells at 6 uM incubated for 48 hrs by annexin V-FITC and PI staining based flow cytometry analysis (reference value: 90.1 %); assay type: functional; conditions: read-out: Activity
[16] = Solubility in mixture of ethanol/PEG400/Cremophor EL/0.9% saline; assay type: physicochemical; conditions: buffer
NCI-H460 [17] = test: Induction of apoptosis in human NCI-H460 cells assessed as early apoptotic cells at 3 uM incubated for 48 hrs by annexin V-FITC and PI staining based flow cytometry analysis (reference value: 2 %); assay type: functional
NCI-H460 [18] = test: Induction of cell cycle arrest in human NCI-H460 cells assessed as G1 phase at 1.5 uM incubated for 24 hrs by PI staining based flow cytometry analysis (reference value: 56.8 +/- 7.6 %); assay type: functional
NCI-H460 [19] = test: Induction of cell cycle arrest in human NCI-H460 cells assessed as S phase at 3 uM incubated for 24 hrs by PI staining based flow cytometry analysis (reference value: 11.7 +/- 6.1 %); assay type: functional
HCT-116 [20] = test: Induction of cell cycle arrest in human HCT-116 cells assessed as G0 phase at 1.5 uM measured at 0 hrs by PI staining based flow cytometry analysis (reference value: 0.7 +/- 0.2 %); assay type: functional
NCI-H460 [21] = test: Induction of cell cycle arrest in human NCI-H460 cells assessed as S phase at 0.75 uM incubated for 24 hrs by PI staining based flow cytometry analysis (reference value: 11.7 +/- 6.1 %); assay type: functional
NCI-H460 [22] = test: Induction of cell cycle arrest in human NCI-H460 cells assessed as S phase at 0.75 uM incubated for 12 hrs by PI staining based flow cytometry analysis (reference value: 11.2 +/- 4.3 %); assay type: functional
HCT-116 [23] = test: Induction of cell cycle arrest in human HCT-116 cells assessed as G0 phase at 0.375 uM incubated for 12 hrs by PI staining based flow cytometry analysis (reference value: 2.2 +/- 1.7 %); assay type: functional
NCI-H460 [24] = test: Induction of cell cycle arrest in human NCI-H460 cells assessed as G0 phase at 1.5 uM incubated for 24 hrs by PI staining based flow cytometry analysis (reference value: 1.6 +/- 0.6 %); assay type: functional
HCT-116 [25] = test: Induction of cell cycle arrest in human HCT-116 cells assessed as G2/M phase at 1.5 uM incubated for 36 hrs by PI staining based flow cytometry analysis (reference value: 23.6 +/- 1 %); assay type: functional
HCT-116 [26] = test: Induction of cell cycle arrest in human HCT-116 cells assessed as G2/M phase at 0.75 uM incubated for 24 hrs by PI staining based flow cytometry analysis (reference value: 9.3 +/- 0.8 %); assay type: functional
HCT-116 [27] = test: Induction of cell cycle arrest in human HCT-116 cells assessed as G1 phase at 1.5 uM incubated for 24 hrs by PI staining based flow cytometry analysis (reference value: 55 +/- 9.8 %); assay type: functional
HCT-116 [28] = test: Induction of cell cycle arrest in human HCT-116 cells assessed as G0 phase at 0.75 uM measured at 0 hrs by PI staining based flow cytometry analysis (reference value: 0.7 +/- 0.2 %); assay type: functional
NCI-H460 [29] = test: Induction of apoptosis in human NCI-H460 cells assessed as necrotic cells at 1.5 uM incubated for 48 hrs by annexin V-FITC and PI staining based flow cytometry analysis (reference value: 0.7 %); assay type: functional
NCI-H460 [30] = test: Induction of cell cycle arrest in human NCI-H460 cells assessed as G0 phase at 1.5 uM incubated for 12 hrs by PI staining based flow cytometry analysis (reference value: 2.9 +/- 2.4 %); assay type: functional
dsDNA = test: Induction of pBR322 DNA interstand crosslink at 1 to 20 uM incubated for 2 hrs by agarose gel electrophoresis assay; conditions: dose 1-20 µM

Molecule `OCc1cn2c3ccccc3c3ccccc3c2c1CO` has an Activity (NCI-H460 [1]) of 54.9%, an Activity (HCT-116 [2]) of 12.6% and an Activity (NCI-H460 [3]) of 22.8%. It also gave an Activity (NCI-H460 [4]) of 3.5%, an Activity (NCI-H460 [5]) of 12.2% and an Activity (NCI-H460 [6]) of 24.6%. It also gave an IC50 (NCI-H460 [7]) of 3140 nM, an Activity (NCI-H460 [8]) of 24.2% and an Activity (HCT-116 [9]) of 52.9%. It also gave an IC50 (CCRF-CEM) of 370 nM, an Activity (NCI-H460 [10]) of 24.1% and an Activity (NCI-H460 [11]) of 13.7%. The Activity (HCT-116 [12]) was 17.2%, the Activity (NCI-H460 [13]) was 49.3% and the IC50 (CEM-VLB) was 380 nM. For the same molecule, the Activity (HCT-116 [14]) was 28.5%, the viability at 6 µM (NCI-H460 [15]) was 13.4% and the solubility [16] was “Soluble”. It also gave an Activity (NCI-H460 [17]) of 10.8%, an Activity (NCI-H460 [18]) of 56.3% and an Activity (NCI-H460 [19]) of 10.9%. The Activity (HCT-116 [20]) was 2.2%, the Activity (NCI-H460 [21]) was 11% and the Activity (NCI-H460 [22]) was 14.2%. It also gave an Activity (HCT-116 [23]) of 1.8%, an Activity (NCI-H460 [24]) of 2.8% and an Activity (HCT-116 [25]) of 20.7%. The Activity (HCT-116 [26]) was 25.6%, the Activity (HCT-116 [27]) was 54.5% and the Activity (HCT-116 [28]) was 0.8%. For the same molecule, the Activity (NCI-H460 [29]) was 0.5%, the Activity (NCI-H460 [30]) was 2.6% and the Activity (dsDNA) was “Active”.
